Measured values as given in patent publication US8192962B2, “Processes for detecting toxic substances” (Daikin Industries, Ltd., priority 2001, dated 2012).

Tested on: Mitochondria-located protein genes
Assay: DNA chip mRNA expression in yeast, mitochondria-located protein genes (Table 2)
Format: cell-based, Saccharomyces cerevisiae S288C
Settings: cells incubated two hours with the chemical substance
Experimental: Yeast (Saccharomyces cerevisiae S288C (α SUC2mal mel gap2 CUP1)) were incubated at 25° C. on YPD medium (yeast extract 1%, polypepton 2%, glucose 2%). One of toxic chemical substances was added to the cells at logarithmic growth phase, and the cells were further incubated for two hours. Cells were cultured without any chemical substance in the same condition, and were used as control. Concentrations of the chemical substances were defined to inhibit the growth of the yeast but not lead to death.
After completion of the incubation, the culture was centrifuged to collect the cells. To the cells, sodium acetate buffer (50 mM sodium acetate, 10 mM EDTA, 1% SDS) was added, and the mixture was shaken at 65° C. for five minutes, followed by returning to room temperature, and obtaining the supernatant, of which the procedures were repeated two times. To the supernatant, ½ amount of a solution of phenol/chloroform was added, and the mixture was centrifuged to give a supernatant, which was added with an equal amount of chloroform, and the mixture was centrifuged to give a supernatant. To the supernatant, an equal amount of isopropanol containing 0.3 M sodium acetate was added, and the mixture was allowed to stand at room temperature for 30 minutes, after which the mixture was centrifuged to give a sediment of the whole RNAs. Seventy % ethanol was added to the sediment, and the mixture was again centrifuged to give a sediment, which was then dried and dissolved in water. mRNA was isolated from the whole RNAs as followings. In view of the fact that a poly A chain is attached to the 3′ terminus of mRNA, a polynucleotide having a poly T structure which was immobilized on the surface of latex beads was used to trap the mRNA, and then the mRNA was washed and eluted with spine column (Oligotex-dT30<Super>mRNA Purification Kit, Takara). Reverse transcription of the mRNA was conducted with a reverse transcriptase (Super Script II Reverse Transcriptase; catalogue No. 18064-014, GibcoBRL) using fluorescence-labeled nucleotides to give cDNAs that were introduced with Cy3-dUTP or Cy5-dUTP during the reverse transcription.
The labeled cDNAs were dissolved in TE buffer (10mM Tris-HCl/1 mM EDTA, pH8.0), and the solution was dropped on the DNA chip containing the whole genes of yeast (DNA Chip Research Inc. Japan) so that the cDNAs were hybridized on the DNA chip at 65° C. for over 12 hours. The fluoresces intensity of the DNA chip was read with a scanner, and the ratio relative to the fluorescence intensity resulting from the absence of chemical substance was estimated as the following, which is shown in Tables 1 to 9: […]

`O=[N+]([O-])c1cc[n+]([O-])c2ccccc12` [(5), 4-nitroquinolin-N-oxide] was tested. Which “The level of expressed mRNA in the presence of chemical substance/The level of expressed mRNA in the absence of chemical substance” value (yeast gene YAL039C) did it give?
Its value is 1.1.

And the “The level of expressed mRNA in the presence of chemical substance/The level of expressed mRNA in the absence of chemical substance” value (yeast gene YBL022C)?
Its value is 1.2.

What about the “The level of expressed mRNA in the presence of chemical substance/The level of expressed mRNA in the absence of chemical substance” value (yeast gene YBL030C) of the same compound?
The value was 0.7.

And the “The level of expressed mRNA in the presence of chemical substance/The level of expressed mRNA in the absence of chemical substance” value (yeast gene YBL038W)?
The value was 0.9.

What about the “The level of expressed mRNA in the presence of chemical substance/The level of expressed mRNA in the absence of chemical substance” value (yeast gene YBL099W) of the same compound?
The value was 1.0.

And the “The level of expressed mRNA in the presence of chemical substance/The level of expressed mRNA in the absence of chemical substance” value (yeast gene YBR003W)?
The value was 0.7.

And the “The level of expressed mRNA in the presence of chemical substance/The level of expressed mRNA in the absence of chemical substance” value (yeast gene YBR044C)?
Its value is 1.4.

And the “The level of expressed mRNA in the presence of chemical substance/The level of expressed mRNA in the absence of chemical substance” value (yeast gene YBR091C)?
Its value is 1.1.

And the “The level of expressed mRNA in the presence of chemical substance/The level of expressed mRNA in the absence of chemical substance” value (yeast gene YBR122C)?
The value was 1.5.

What about the “The level of expressed mRNA in the presence of chemical substance/The level of expressed mRNA in the absence of chemical substance” value (yeast gene YBR185C) of the same compound?
Its value is 0.8.

And the “The level of expressed mRNA in the presence of chemical substance/The level of expressed mRNA in the absence of chemical substance” value (yeast gene YBR221C)?
Its value is 1.3.

And the “The level of expressed mRNA in the presence of chemical substance/The level of expressed mRNA in the absence of chemical substance” value (yeast gene YBR251W)?
Its value is 1.3.

And the “The level of expressed mRNA in the presence of chemical substance/The level of expressed mRNA in the absence of chemical substance” value (yeast gene YBR282W)?
Its value is 1.0.

And the “The level of expressed mRNA in the presence of chemical substance/The level of expressed mRNA in the absence of chemical substance” value (yeast gene YCL057W)?
The value was 1.1.

And the “The level of expressed mRNA in the presence of chemical substance/The level of expressed mRNA in the absence of chemical substance” value (yeast gene YCR046C)?
The value was 1.0.

And the “The level of expressed mRNA in the presence of chemical substance/The level of expressed mRNA in the absence of chemical substance” value (yeast gene YCR083W)?
The value was 1.6.

And the “The level of expressed mRNA in the presence of chemical substance/The level of expressed mRNA in the absence of chemical substance” value (yeast gene YDL067C)?
Its value is 2.0.

What about the “The level of expressed mRNA in the presence of chemical substance/The level of expressed mRNA in the absence of chemical substance” value (yeast gene YDL181W) of the same compound?
Its value is 1.7.

What about the “The level of expressed mRNA in the presence of chemical substance/The level of expressed mRNA in the absence of chemical substance” value (yeast gene YDL198C) of the same compound?
Its value is 0.7.

And the “The level of expressed mRNA in the presence of chemical substance/The level of expressed mRNA in the absence of chemical substance” value (yeast gene YDR079W)?
Its value is 1.2.

And the “The level of expressed mRNA in the presence of chemical substance/The level of expressed mRNA in the absence of chemical substance” value (yeast gene YDR178W)?
The value was 0.9.

What about the “The level of expressed mRNA in the presence of chemical substance/The level of expressed mRNA in the absence of chemical substance” value (yeast gene YDR231C) of the same compound?
Its value is 1.1.

And the “The level of expressed mRNA in the presence of chemical substance/The level of expressed mRNA in the absence of chemical substance” value (yeast gene YDR258C)?
Its value is 1.3.

And the “The level of expressed mRNA in the presence of chemical substance/The level of expressed mRNA in the absence of chemical substance” value (yeast gene YDR298C)?
The value was 1.3.

And the “The level of expressed mRNA in the presence of chemical substance/The level of expressed mRNA in the absence of chemical substance” value (yeast gene YDR347W)?
Its value is 0.8.

And the “The level of expressed mRNA in the presence of chemical substance/The level of expressed mRNA in the absence of chemical substance” value (yeast gene YDR377W)?
Its value is 1.9.

And the “The level of expressed mRNA in the presence of chemical substance/The level of expressed mRNA in the absence of chemical substance” value (yeast gene YDR529C)?
Its value is 1.2.

And the “The level of expressed mRNA in the presence of chemical substance/The level of expressed mRNA in the absence of chemical substance” value (yeast gene YEL024W)?
The value was 1.3.

What about the “The level of expressed mRNA in the presence of chemical substance/The level of expressed mRNA in the absence of chemical substance” value (yeast gene YEL039C) of the same compound?
The value was 0.9.

What about the “The level of expressed mRNA in the presence of chemical substance/The level of expressed mRNA in the absence of chemical substance” value (yeast gene YER178W) of the same compound?
The value was 0.7.

And the “The level of expressed mRNA in the presence of chemical substance/The level of expressed mRNA in the absence of chemical substance” value (yeast gene YFL016C)?
The value was 1.3.

What about the “The level of expressed mRNA in the presence of chemical substance/The level of expressed mRNA in the absence of chemical substance” value (yeast gene YGL018C) of the same compound?
Its value is 1.1.

And the “The level of expressed mRNA in the presence of chemical substance/The level of expressed mRNA in the absence of chemical substance” value (yeast gene YGL187C)?
The value was 1.3.

What about the “The level of expressed mRNA in the presence of chemical substance/The level of expressed mRNA in the absence of chemical substance” value (yeast gene YGL191W) of the same compound?
The value was 0.9.

What about the “The level of expressed mRNA in the presence of chemical substance/The level of expressed mRNA in the absence of chemical substance” value (yeast gene YGR008C) of the same compound?
The value was 0.9.

And the “The level of expressed mRNA in the presence of chemical substance/The level of expressed mRNA in the absence of chemical substance” value (yeast gene YGR028W)?
The value was 0.9.

And the “The level of expressed mRNA in the presence of chemical substance/The level of expressed mRNA in the absence of chemical substance” value (yeast gene YGR062C)?
Its value is 0.7.

And the “The level of expressed mRNA in the presence of chemical substance/The level of expressed mRNA in the absence of chemical substance” value (yeast gene YGR076C)?
Its value is 0.9.

And the “The level of expressed mRNA in the presence of chemical substance/The level of expressed mRNA in the absence of chemical substance” value (yeast gene YGR082W)?
The value was 0.9.

What about the “The level of expressed mRNA in the presence of chemical substance/The level of expressed mRNA in the absence of chemical substance” value (yeast gene YGR174C) of the same compound?
Its value is 1.0.

And the “The level of expressed mRNA in the presence of chemical substance/The level of expressed mRNA in the absence of chemical substance” value (yeast gene YGR244C)?
Its value is 0.8.

And the “The level of expressed mRNA in the presence of chemical substance/The level of expressed mRNA in the absence of chemical substance” value (yeast gene YHR008C)?
The value was 0.6.

What about the “The level of expressed mRNA in the presence of chemical substance/The level of expressed mRNA in the absence of chemical substance” value (yeast gene YIL155C) of the same compound?
Its value is 1.3.

And the “The level of expressed mRNA in the presence of chemical substance/The level of expressed mRNA in the absence of chemical substance” value (yeast gene YJL096W)?
Its value is 1.9.

What about the “The level of expressed mRNA in the presence of chemical substance/The level of expressed mRNA in the absence of chemical substance” value (yeast gene YJL102W) of the same compound?
Its value is 1.3.

And the “The level of expressed mRNA in the presence of chemical substance/The level of expressed mRNA in the absence of chemical substance” value (yeast gene YJL133W)?
Its value is 0.9.

And the “The level of expressed mRNA in the presence of chemical substance/The level of expressed mRNA in the absence of chemical substance” value (yeast gene YJL166W)?
Its value is 1.6.

What about the “The level of expressed mRNA in the presence of chemical substance/The level of expressed mRNA in the absence of chemical substance” value (yeast gene YJL180C) of the same compound?
Its value is 1.5.

And the “The level of expressed mRNA in the presence of chemical substance/The level of expressed mRNA in the absence of chemical substance” value (yeast gene YJR045C)?
The value was 0.5.

What about the “The level of expressed mRNA in the presence of chemical substance/The level of expressed mRNA in the absence of chemical substance” value (yeast gene YJR077C) of the same compound?
Its value is 0.9.
